# Assay results: patent US20020119993A1, “Potentiator for neurotrophin effect” (SANKO COMPANY, LIMITED, priority 1999, published 2002)
# Assays:
# [1] = test system: neurotrophin receptor Trk; test: Neurotrophin receptor Trk activation (phosphotyrosine) in hippocampal and strial tissue slices of matured rat; format: cell-based; conditions: for Amount of neurotrophin receptor Trk activated in matured rat cerebral tissues: relative to the amount (100) activated by NGF in the strial tissue
# Method: Enhancing Action of Neurotrophin Response in Hippocampal and Strial Tissue Slices of Matured Rat
# Male SD rats (Nippon SLC) were decapitated under anesthesia and the hippocampus and the corpus striatum were isolated. The tissue was cut into 0.2×0.2 mm slices with a “McIlwain Tissue Chopper” (Mickle Laboratory Engineering Company), and were suspended in a DMEM medium. A neurotrophin (NGF or NT-3) and 1-amino-3,8-dichloro-6(5H)-phenanthridinone were added to the suspension and the mixture was kept at 37° C. for 20 minutes. After washing the tissue with ice-cooled tris buffer physiological saline (TBS), the mixture was stirred vigorously and dissolved in TBS containing 1% Triton-X100, 10 μg/ml of leupeptin, 10 µg/ml of aprotinin, 1 mM of phenylmethylsulfonyl fluoride and 1 mM of sodium vanadate. After centrifugation at 14000 g for 15 minutes, the amount of protein in the supernatant was determined with Protein Assay Kit (Bio-Rad Laboratories, Ltd.). Anti-Trk antibody C-14 (Santa Cruz Biotechnology Inc) which specifically binds to Trk, a neurotrophin receptor, was added to the extract which was adjusted to contain an equal amount of protein and mixed at 4° C. for 16 hours. Thus the Trk receptor in the tissue extract formed an immunocomplex with the antibody. The immunocomplex was precipitated with protein A Sepharose beads (Amersham Pharmacia Biotech). The Trk protein collected was separated from other proteins by sodium dodecyl sulfate-polyacrylamide gel electrophoresis and then transferred to a nitrocellulose membrane by Western blot assay. The membrane was reacted with Antibody 4G10 (Upstate Biotechnology Inc) which recognizes phosphotyrosine and the amount of phosphotyrosine of the Trk protein fixed on the membrane was visualized on a film by an enhanced chemiluminescence kit (Amersham Pharmacia Biotech). The film was photographed by a digital camera and the density of the band was determined by digital image analyzing software (Eastman Kodak Company).
# [2] = test system: sensory neurons in the dorsal root ganglion of the rat spinal cord; test: Survival of sensory neurons of the dorsal root ganglion of the rat spinal cord; format: cell-based; conditions: for Effect on NGF or NT-3 prolonged survival of sensory neurons in the dorsal root ganglion (in words): with NGF or NT-3
# Method: Effects on Survival of Ganglion Sensory Neurons in Dorsal Spinal Root Ganglion of the Rat Spinal Cord
# The dorsal root ganglion of the spinal cord was isolated from fetuses of the SD rat (Nippon SLC) on 17 days definite pregnancy under a stereoscopic microscope. The ganglion was then treated with 1 mg/ml of collagenase, 2 mg/ml of trypsin and 2 mg/ml of DNase I, followed by dispersion in an MEM medium containing 10% bovine fetal serum. Immediately after the sensory neuron suspension was charged in a 12-well plate (Becton Dickinson Labware) which was coated in advance with laminin and poly-D-lysine, a neurotrophin (NGF or NT-3) and 1-amino-3,8-dichloro-6(5H)-phenanthridinone (Compound No. 166) or 6(5H)-phenanthridinone (Compound A) were added. When half of the medium was exchanged on the next day, cytosine arabinoside was added to the culture medium at a final concentration of 10 μM, in order to cause cell death other than to neurons. A neurotrophin and the test compound were added to the medium at their original concentrations. After culturing for a further two days, the neurons were photographed under a microscope and the number of viable neurons was counted.
# [3] = test system: PC12 cells; test: Induction of differentiation (neurite outgrowth) in PC12 cells with neurotrophin; format: cell-based, rat; conditions: for Ratio of PC12 cells having an outgrowth (%): 72 hours; for Differentiation-induction of PC12 cells by neurotrophin alone (in words): neurotrophin used alone
# Description: Induction of Differentiation in […] strain (PC12 cell) derived from Rat Adrenal Medulla
# PC12 cells were suspended in a DEM medium containing 10% equine serum and 5% bovine serum and the resulting suspension was charged in a collagen-coated 24-well plate. Twenty-four hours later, the medium was exchanged. A neurotrophin [human recombinant NGF or NT-3 (Austral Biologicals)] and 1-amino-3,8-dichloro-6(5H)-phenanthridinone (Compound No. 166) synthesized in accordance with the process described in Journal of Heterocyclic Chemistry, Z, 597 (1970), were added and cultured for 72 hours. After the medium was discarded, the cells were fixed with 2% glutaraldehyde and were observed under a microscope. The ratio of the cells having a longer outgrowth than the cell body was determined.
# [4] = Table 4, NT-3 100 ng/ml + compound 1 μM
# [5] = Table 4, neurotrophin-free, compound 1 μM
molecule,measurement,setting,value
"Nc1cc(Cl)cc2[nH]c(=O)c3cc(Cl)ccc3c12 [Compound No. 166, 1-amino-3,8-dichloro-6(5H)-phenanthridinone]",Amount of neurotrophin receptor Trk activated in matured rat cerebral tissues,"[1]; Corpus striatum, NT-3 100 ng/ml + compound 30 μM",68
same,Amount of neurotrophin receptor Trk activated in matured rat cerebral tissues,"[1]; Hippocampus, NT-3 100 ng/ml + compound 30 μM",58
same,Neurotrophin enhancing action in the adult central nervous system (in words),"[1]; matured rat cerebral tissue slices, Table 5",has a neurotrophin enhancing action in the adult central nervous system
same,Number of viable sensory neurons in the dorsal root ganglion of the rat spinal cord (per mm^2),"[2]; Table 3, NGF 1 ng/ml + compound 3 μM",71 ± 1.7 per mm^2
same,Number of viable sensory neurons in the dorsal root ganglion of the rat spinal cord (per mm^2),"[2]; Table 3, NT-3 100 ng/ml + compound 3 μM",168 ± 21.1 per mm^2
same,Number of viable sensory neurons in the dorsal root ganglion of the rat spinal cord (per mm^2),"[2]; Table 3, neurotrophin-free, compound 3 μM",24 ± 1.6 per mm^2
same,Number of viable sensory neurons in the dorsal root ganglion of the rat spinal cord (per mm^2),[2]; [4],133 ± 13.1 per mm^2
same,Number of viable sensory neurons in the dorsal root ganglion of the rat spinal cord (per mm^2),[2]; [5],11 ± 4.0 per mm^2
same,Effect on NGF or NT-3 prolonged survival of sensory neurons in the dorsal root ganglion (in words),[2],markedly potentiated the effects of NGF or NT-3
same,Ratio of PC12 cells having an outgrowth (%),[3]; NGF 5 ng/ml + compound 3 μM,12 ± 1.3%
same,Ratio of PC12 cells having an outgrowth (%),[3]; NGF 5 ng/ml + compound 30 μM,29 ± 2.6%
same,Ratio of PC12 cells having an outgrowth (%),[3]; NGF 20 ng/ml + compound 3 μM,51 ± 6.5%
same,Ratio of PC12 cells having an outgrowth (%),[3]; NGF 20 ng/ml + compound 30 μM,72 ± 2.0%
same,Ratio of PC12 cells having an outgrowth (%),[3]; NGF 50 ng/ml + compound 3 μM,79 ± 3.0%
same,Ratio of PC12 cells having an outgrowth (%),[3]; NGF 50 ng/ml + compound 30 μM,88 ± 0.7%
same,Ratio of PC12 cells having an outgrowth (%),[3]; NT-3 100 ng/ml + compound 3 μM,62 ± 0.2%
same,Ratio of PC12 cells having an outgrowth (%),[3]; NT-3 100 ng/ml + compound 30 μM,73 ± 3.6%
same,Effect on NGF-induced differentiation and neurite outgrowth in PC12 cells (in words),[3]; applied with NGF,potentiated the NGF-induced differentiation and neurite outgrowth in PC12 cells
same,Effect on differentiation-induction of PC12 cells (in words),[3]; combined application with NT-3,markedly potentiated the differentiation-induction of PC12 cells
"NT-3: neurotrophin-3, a neurotrophin (Austral Biologicals)",Amount of neurotrophin receptor Trk activated in matured rat cerebral tissues,"[1]; Corpus striatum, NT-3 100 ng/ml alone",12
same,Amount of neurotrophin receptor Trk activated in matured rat cerebral tissues,"[1]; Hippocampus, NT-3 100 ng/ml alone",27
same,Number of viable sensory neurons in the dorsal root ganglion of the rat spinal cord (per mm^2),"[2]; Table 3, neurotrophin alone 100 ng/ml, compound-free",19 ± 5.0 per mm^2
same,Number of viable sensory neurons in the dorsal root ganglion of the rat spinal cord (per mm^2),"[2]; Table 4, neurotrophin alone 100 ng/ml, compound-free",33 ± 4.9 per mm^2
same,Ratio of PC12 cells having an outgrowth (%),"[3]; neurotrophin alone 100 ng/ml, compound-free",2 ± 0.6%
same,Differentiation-induction of PC12 cells by neurotrophin alone (in words),[3],did not cause any sufficient differentiation-induction by itself
"NGF: human recombinant NGF (nerve growth factor), a neurotrophin (Austral Biologicals)",Number of viable sensory neurons in the dorsal root ganglion of the rat spinal cord (per mm^2),"[2]; Table 3, neurotrophin alone 1 ng/ml, compound-free",44 ± 5.5 per mm^2
same,Ratio of PC12 cells having an outgrowth (%),"[3]; neurotrophin alone 5 ng/ml, compound-free",8 ± 0.9%
same,Ratio of PC12 cells having an outgrowth (%),"[3]; neurotrophin alone 20 ng/ml, compound-free",27 ± 2.8%
same,Ratio of PC12 cells having an outgrowth (%),"[3]; neurotrophin alone 50 ng/ml, compound-free",57 ± 3.6%
same,Differentiation-induction of PC12 cells by neurotrophin alone (in words),[3],induced differentiation of PC12 cells
"O=c1[nH]c2ccccc2c2ccccc12 [Compound A, 6(5H)-phenanthridinone, reference compound]",Number of viable sensory neurons in the dorsal root ganglion of the rat spinal cord (per mm^2),[2]; [4],37 ± 3.6 per mm^2
same,Number of viable sensory neurons in the dorsal root ganglion of the rat spinal cord (per mm^2),[2]; [5],6 ± 0.8 per mm^2
same,Effect on NGF or NT-3 prolonged survival of sensory neurons in the dorsal root ganglion (in words),[2],had no effects
